According to ChEMBL document CHEMBL1201862, “PubChem BioAssay data set” (2004):
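Grown in 96-well plates, cells were treated for 48 hours with each compound at five concentrations. Insufficient inhibition: endpoint recorded as highest concentration tested. GI50 marks 50% less growth.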 Activity calls are given as the source filed them. Rule as the data show it: active = GI50 up to about 1.1 µM and inactive = higher.

Tests used:
Assay in all cases: NCI tumour cell line growth inhibition, 48 h
OVCAR-5 = tested on: OVCAR-5
HCC 2998 = tested on: HCC 2998
OVCAR-3 = tested on: OVCAR-3
COLO 205 = tested on: COLO 205
UACC-257 = tested on: UACC-257
SK-MEL-28 = tested on: SK-MEL-28
HOP-62 = tested on: HOP-62
HCT-15 = tested on: HCT-15
SF-539 = tested on: SF-539
CAKI-1 = tested on: CAKI-1
SF-295 = tested on: SF-295
SNB-75 = tested on: SNB-75
HOP-92 = tested on: HOP-92
ACHN = tested on: ACHN
SF-268 = tested on: SF-268
OVCAR-4 = tested on: OVCAR-4
SNB-19 = tested on: SNB-19
NCI-H226 = tested on: NCI-H226

SMILES	GI50 (OVCAR-5)	GI50 (HCC 2998)	GI50 (OVCAR-3)	GI50 (COLO 205)	GI50 (UACC-257)	GI50 (SK-MEL-28)	GI50 (HOP-62)	GI50 (HCT-15)	GI50 (SF-539)	GI50 (CAKI-1)	GI50 (SF-295)	GI50 (SNB-75)	GI50 (HOP-92)	GI50 (ACHN)	GI50 (SF-268)	GI50 (OVCAR-4)	GI50 (SNB-19)	GI50 (NCI-H226)
CN(C)CC1CC/C(=C\c2ccc(Cl)cc2)C1=O (configuration not stated)	18.2 µM (inactive)	4.69 µM (inactive)	7.35 µM (inactive)	4.19 µM (inactive)	8.17 µM (inactive)	3.3 µM (inactive)	22.4 µM (inactive)	3.18 µM	13.7 µM (inactive)	3.33 µM (inactive)	17.2 µM (inactive)	14.8 µM (inactive)	7.73 µM (inactive)	12.6 µM (inactive)	7.03 µM (inactive)	15.1 µM (inactive)	15.8 µM (inactive)	19.9 µM (inactive)
CCOC(=O)CCC(=O)C1c2cccc(O)c2C(=O)c2c(O)cccc21	1.75 µM (inactive)	0.537 µM (active)	0.942 µM (active)	2.01 µM (inactive)	1.69 µM (inactive)	1.33 µM (inactive)	1.73 µM (inactive)	–	0.411 µM (active)	2.36 µM (inactive)	0.644 µM (active)	0.877 µM (active)	1.49 µM (inactive)	1.43 µM (inactive)	0.908 µM (active)	0.611 µM (active)	1.56 µM (inactive)	–
O=C1CC2=CCCC2O1 (configuration not stated)	–	> 100 µM (inactive)	> 100 µM (inactive)	> 100 µM (inactive)	> 100 µM (inactive)	> 100 µM (inactive)	> 100 µM (inactive)	> 100 µM	> 100 µM (inactive)	> 100 µM (inactive)	> 100 µM (inactive)	> 100 µM (inactive)	> 100 µM (inactive)	–	> 100 µM (inactive)	> 100 µM (inactive)	> 100 µM (inactive)	–
Cc1cc2nc(O)c(CCC(=O)O)nc2cc1C	> 100 µM (inactive)	> 100 µM (inactive)	> 100 µM (inactive)	70.6 µM (inactive)	> 100 µM (inactive)	> 100 µM (inactive)	> 100 µM (inactive)	> 100 µM	> 100 µM (inactive)	> 100 µM (inactive)	> 100 µM (inactive)	> 100 µM (inactive)	> 100 µM (inactive)	> 100 µM (inactive)	> 100 µM (inactive)	> 100 µM (inactive)	> 100 µM (inactive)	> 100 µM (inactive)
CSC(=O)C[C@@]12O[C@@H]([C@@H](C)C3CCC4[C@@H]5C(O)CC6=CC(=O)C=C[C@]6(C)C5CC[C@@]43C)C[C@](C)(O1)C(C)(C)O2 (some centres not stated)	17.7 µM (inactive)	26.2 µM (inactive)	15.1 µM (inactive)	–	12.6 µM (inactive)	17.9 µM (inactive)	18.2 µM (inactive)	17.3 µM	16.3 µM (inactive)	18.6 µM (inactive)	14.5 µM (inactive)	–	9.86 µM (inactive)	–	16.4 µM (inactive)	13.5 µM (inactive)	17.5 µM (inactive)	22.3 µM (inactive)
O=C(NCO)NCOCn1c(=O)n(CO)c(=O)n(CO)c1=O	> 100 µM (inactive)	> 100 µM (inactive)	84.1 µM (inactive)	27.4 µM (inactive)	49.9 µM (inactive)	22.1 µM (inactive)	> 100 µM (inactive)	23.8 µM	> 100 µM (inactive)	40.6 µM (inactive)	> 91 µM (inactive)	35.8 µM (inactive)	–	49.1 µM (inactive)	31.3 µM (inactive)	32.1 µM (inactive)	> 31.6 µM (inactive)	> 100 µM (inactive)
CCSc1nnc(-c2ccccc2)nc1Cc1ccc(OC)cc1	–	> 100 µM (inactive)	88.9 µM (inactive)	86.9 µM (inactive)	56.5 µM (inactive)	> 100 µM (inactive)	> 100 µM (inactive)	82 µM	> 100 µM (inactive)	–	52.5 µM (inactive)	65.8 µM (inactive)	> 100 µM (inactive)	77.8 µM (inactive)	> 100 µM (inactive)	> 100 µM (inactive)	> 100 µM (inactive)	> 100 µM (inactive)
NC1=NS(=O)(=O)N=C(N)C1=Cc1ccc([N+](=O)[O-])o1	18.9 µM (inactive)	22.1 µM (inactive)	18.1 µM (inactive)	15.7 µM (inactive)	15.5 µM (inactive)	16 µM (inactive)	–	16.8 µM	18.3 µM (inactive)	–	25.4 µM (inactive)	16.3 µM (inactive)	13.8 µM (inactive)	16.9 µM (inactive)	17.5 µM (inactive)	19.9 µM (inactive)	32.8 µM (inactive)	30.8 µM (inactive)
COc1ccc(-c2cc(-c3cc(Cl)cc(Br)c3O)nc(O)n2)cc1	–	19.9 µM (inactive)	17.5 µM (inactive)	15.6 µM (inactive)	17.7 µM (inactive)	19.9 µM (inactive)	14.1 µM (inactive)	–	14.7 µM (inactive)	16.4 µM (inactive)	18 µM (inactive)	15.4 µM (inactive)	17.8 µM (inactive)	14.2 µM (inactive)	16.3 µM (inactive)	5.66 µM (inactive)	23.9 µM (inactive)	17.5 µM (inactive)
